# Publication PMC9696832, “Pyrazole-Based Thrombin Inhibitors with a Serine-Trapping Mechanism of Action: Synthesis and Biological Activity” (Pharmaceuticals, 2022)
# Several values for one entry are separate records, joined by “and”; a condition that tells them apart may be missing. Equal entries are not always repeated. Where two headings read alike, the source gives them in different places.
# Key:
# human pooled plasma [1] = test: In vitro plasma coagulation assay (aPTT); format: biochemical; settings: tested at 200 μM
# Method: (§1) In vitro plasma coagulation assays (aPTT and PT). All measurements were performed using commercially available citrated (3.8%) human pooled plasma (Dunn Labortechnik GmbH, Germany) on a semi-automated coagulometer (Thrombotimer-2, Behnk Elektronik, Germany) according to the manufacturer instructions as previously reported. For aPTT measurement, plasma (100 μL) was placed into the incubation cuvettes of the instrument and incubated for 2 min at 37 °C. Then, test compound solution (10 μL) or solvent (DMSO, 10 μL) was added with a pipette. After 1 min of incubation, 100 μL of prewarmed (37 °C) aPTT reagent (Convergent Technologies, Germany) was added and incubated for additional 2 min. The cuvettes were transferred to a measuring position, the coagulation was initiated by addition of 100 μL of CaCl2 solution (25 mM, prewarmed at 37 °C, Convergent Technologies, Germany) and the clotting time was recorded. For PT assays, plasma (100 μL) was incubated for 2 min at 37 °C. Then, test compound solution (10 μL) or solvent (DMSO, 10 μL) was added with a pipette. After 3 min of incubation, the cuvettes were transferred to a measuring position, the coagulation was initiated by addition of 100 μL of PT assay reagent already containing CaCl2 (prewarmed at 37 °C, Biolabo, France) and the clotting time was recorded.
# human plasmin = target: T1, human plasmin (Homo sapiens, UniProt P00747); test: Serine protease inhibition assay, fluorogenic substrate: plasmin; format: biochemical; settings: screened at 5 μM; [S]0 = 25 µM; read-out: Serine Protease IC50 ± SD, Plasmin
# T1 construct: human plasmin, >95% purity; purchased Innovative Research
# T1 sequence (P00747 581-810 limits assumed): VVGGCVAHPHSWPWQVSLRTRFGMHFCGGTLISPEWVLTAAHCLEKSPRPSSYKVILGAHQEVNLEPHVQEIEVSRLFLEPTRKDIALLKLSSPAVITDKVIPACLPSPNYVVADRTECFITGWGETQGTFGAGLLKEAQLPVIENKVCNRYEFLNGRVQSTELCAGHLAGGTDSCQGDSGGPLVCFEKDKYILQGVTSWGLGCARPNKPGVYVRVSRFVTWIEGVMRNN
# T1 sequence (P00747 97-580 limits assumed): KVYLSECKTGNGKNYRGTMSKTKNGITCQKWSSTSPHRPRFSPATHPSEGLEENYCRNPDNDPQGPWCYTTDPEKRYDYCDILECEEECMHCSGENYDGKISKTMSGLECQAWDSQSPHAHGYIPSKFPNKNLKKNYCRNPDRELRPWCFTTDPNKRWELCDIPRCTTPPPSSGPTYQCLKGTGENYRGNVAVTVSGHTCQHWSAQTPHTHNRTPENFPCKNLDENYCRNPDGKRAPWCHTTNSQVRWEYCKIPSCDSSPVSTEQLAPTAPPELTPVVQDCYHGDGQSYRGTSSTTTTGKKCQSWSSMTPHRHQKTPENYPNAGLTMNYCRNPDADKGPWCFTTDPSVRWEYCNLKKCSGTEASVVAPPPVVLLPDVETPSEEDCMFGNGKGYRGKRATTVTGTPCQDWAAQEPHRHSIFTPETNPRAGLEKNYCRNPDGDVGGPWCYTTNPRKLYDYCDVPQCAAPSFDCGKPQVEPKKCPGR
# Method: (§2) Serine protease inhibition assays. The inhibitory activity of synthesized compounds towards thrombin, FXIIa, FXa, FXIa, plasmin, plasma kallikrein, chymotrypsin, and trypsin was measured by quantifying the hydrolysis rate of the fluorogenic substrate as reported previously. Briefly, the activity was tested in buffer (10 mM Tris-Cl, 150 mM NaCl, 10 mM MgCl2·6H2O, 1 mM CaCl2·2H2O, 0.1% w/v BSA, 0.01% v/v Triton-X100, pH = 7.4) utilizing clear flat-bottom, black polystyrene 96 well-plates. […] Dilutions of test-compounds ranging from 2 nM to 32 µM (final concentrations) in DMSO were prepared. The fluorogenic substrate solution was added into the wells followed by the addition of 2 µL of test-compounds solution, and the reaction was triggered by addition of the enzyme solution (final testing volume–152 µL). In case of blank (substrate + buffer) and control (substrate + enzyme) wells, 2 µL of DMSO was added instead of the test-compounds’ solution. Fluorescence intensity was measured with Microplate Reader Mithras LB 940 (Berthold Technologies, excitation at 355 nm, emission at 460 nm) for a period of 1 h (thrombin, FXIIa, FXa, FXIa, and trypsin), 30 min (plasma kallikrein, chymotrypsin), or 15 min (plasmin) with a read every minute. The reactions were performed at 25 °C. To derive IC50 values, endpoint RFU (single fluorescence reading) was used. Sigmoidal curves were prepared in GraphPad Prism software and IC50 values were derived from the fitted curves.
# human chymotrypsin = test: Serine protease inhibition assay, fluorogenic substrate: chymotrypsin; format: biochemical; settings: for IC50: screened at 5 μM, IC50 in triplicate for actives, [S]0 = 25 µM, read-out: Serine Protease IC50 ± SD, Chymotrypsin
# Method: as §2
# human plasma kallikrein = target: T2, human plasma kallikrein (Homo sapiens, UniProt P03952); test: Serine protease inhibition assay, fluorogenic substrate: plasma kallikrein; format: biochemical; settings: screened at 5 μM; IC50 in triplicate for actives; [S]0 = 25 µM; read-out: Serine Protease IC50 ± SD, PK (plasma kallikrein)
# T2 construct: human plasma kallikrein, >94% purity; purchased Innovative Research
# T2 sequence (P03952 391-638 limits assumed): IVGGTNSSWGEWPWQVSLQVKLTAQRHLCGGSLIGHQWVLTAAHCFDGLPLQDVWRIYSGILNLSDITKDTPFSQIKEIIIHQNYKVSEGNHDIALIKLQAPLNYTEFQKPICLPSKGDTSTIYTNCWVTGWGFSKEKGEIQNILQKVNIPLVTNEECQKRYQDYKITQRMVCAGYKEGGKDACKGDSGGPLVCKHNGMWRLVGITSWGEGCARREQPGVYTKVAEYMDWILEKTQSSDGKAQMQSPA
# T2 sequence (P03952 20-390 limits assumed): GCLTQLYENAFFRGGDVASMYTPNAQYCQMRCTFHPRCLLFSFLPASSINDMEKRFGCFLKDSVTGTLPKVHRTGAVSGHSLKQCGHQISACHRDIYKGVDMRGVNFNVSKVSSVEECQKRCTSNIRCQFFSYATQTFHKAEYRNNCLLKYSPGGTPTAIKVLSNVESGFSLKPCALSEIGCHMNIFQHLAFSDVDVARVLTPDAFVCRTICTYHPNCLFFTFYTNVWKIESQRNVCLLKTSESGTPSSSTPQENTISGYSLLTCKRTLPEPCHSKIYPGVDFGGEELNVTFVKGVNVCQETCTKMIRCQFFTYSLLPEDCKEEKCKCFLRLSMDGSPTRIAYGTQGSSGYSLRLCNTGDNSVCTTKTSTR
# Method: as §2
# human Factor Xa = target: T3, human Factor Xa (Homo sapiens, UniProt P00742); test: Serine protease inhibition assay, fluorogenic substrate: FXa; format: biochemical; settings: for IC50: screened at 5 μM, IC50 in triplicate for actives, [S]0 = 25 µM, read-out: Serine Protease IC50 ± SD, FXa
# T3 construct: human Factor Xa, HFXA; purchased Molecular Innovations HFXA
# T3 sequence (P00742 235-488 limits assumed): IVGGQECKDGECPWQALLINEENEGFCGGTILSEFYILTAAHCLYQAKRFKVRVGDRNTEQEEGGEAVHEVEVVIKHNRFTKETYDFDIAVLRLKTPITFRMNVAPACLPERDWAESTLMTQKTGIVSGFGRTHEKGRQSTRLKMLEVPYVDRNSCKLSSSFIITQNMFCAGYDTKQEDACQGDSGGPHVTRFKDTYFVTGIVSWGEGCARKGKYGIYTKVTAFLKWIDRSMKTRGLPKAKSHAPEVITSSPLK
# T3 sequence (P00742 41-179 limits assumed): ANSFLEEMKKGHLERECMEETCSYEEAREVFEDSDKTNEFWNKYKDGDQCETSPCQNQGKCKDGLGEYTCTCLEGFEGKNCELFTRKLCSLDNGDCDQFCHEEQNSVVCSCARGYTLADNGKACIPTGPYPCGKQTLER
# Method: as §2
# human β-FXIIa = target: T4, human β-FXIIa (Homo sapiens, UniProt P00748); test: Serine protease inhibition assay, fluorogenic substrate: FXIIa; format: biochemical; settings: read-out: Serine Protease IC50 ± SD, FXIIa
# T4 construct: human β-FXIIa, HFXIIAB; purchased Molecular Innovations HFXIIAB
# T4 sequence (P00748 373-615 limits assumed, other chains not shown): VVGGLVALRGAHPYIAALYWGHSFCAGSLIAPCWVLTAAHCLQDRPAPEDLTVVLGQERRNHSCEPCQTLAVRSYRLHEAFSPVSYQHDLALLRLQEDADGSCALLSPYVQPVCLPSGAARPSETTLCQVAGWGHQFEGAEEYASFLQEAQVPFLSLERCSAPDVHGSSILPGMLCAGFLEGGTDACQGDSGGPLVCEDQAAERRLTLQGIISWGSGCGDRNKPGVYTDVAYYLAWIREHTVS
# Method: as §2
# human α-thrombin [2] = target: T5, human α-thrombin (Homo sapiens, UniProt P00734); test: Serine protease inhibition assay, fluorogenic substrate: thrombin; format: biochemical; settings: for IC50: read-out: Serine Protease IC50 ± SD, Thrombin
# T5 construct: human α-thrombin (active) protein; purchased antibodies-online ABIN2127880
# Method: Serine protease inhibition assays. The inhibitory activity of synthesized compounds towards thrombin, FXIIa, FXa, FXIa, plasmin, plasma kallikrein, chymotrypsin, and trypsin was measured by quantifying the hydrolysis rate of the fluorogenic substrate as reported previously [14, 17]. Briefly, the activity was tested in buffer (10 mM Tris-Cl, 150 mM NaCl, 10 mM MgCl2·6H2O, 1 mM CaCl2·2H2O, 0.1% w/v BSA, 0.01% v/v Triton-X100, pH = 7.4) utilizing clear flat-bottom, black polystyrene 96 well-plates. […] The fluorogenic substrate solution was added into the wells followed by the addition of 2 µL of test-compounds solution, and the reaction was triggered by addition of the enzyme solution (final testing volume–152 µL). In case of blank (substrate + buffer) and control (substrate + enzyme) wells, 2 µL of DMSO was added instead of the test-compounds’ solution. […] To derive IC50 values, endpoint RFU (single fluorescence reading) was used. Sigmoidal curves were prepared in GraphPad Prism software and IC50 values were derived from the fitted curves [14, 17].
# human pooled plasma [3] = test: In vitro plasma coagulation assay (PT); format: biochemical; settings: tested at 200 μM
# Method: as §1
# human Factor XIa = target: T6, human Factor XIa (Homo sapiens, UniProt P03951); test: Serine protease inhibition assay, fluorogenic substrate: FXIa; format: biochemical
# T6 construct: human Factor XIa, HFXIA; purchased Molecular Innovations HFXIA
# T6 sequence (P03951 388-625 limits assumed): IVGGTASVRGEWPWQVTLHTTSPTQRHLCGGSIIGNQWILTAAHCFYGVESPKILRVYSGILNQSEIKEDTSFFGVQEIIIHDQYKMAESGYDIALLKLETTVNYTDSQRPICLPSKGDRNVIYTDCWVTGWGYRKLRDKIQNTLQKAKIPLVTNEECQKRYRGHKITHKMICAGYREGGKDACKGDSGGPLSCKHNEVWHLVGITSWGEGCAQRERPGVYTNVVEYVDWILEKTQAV
# T6 sequence (P03951 19-387 limits assumed): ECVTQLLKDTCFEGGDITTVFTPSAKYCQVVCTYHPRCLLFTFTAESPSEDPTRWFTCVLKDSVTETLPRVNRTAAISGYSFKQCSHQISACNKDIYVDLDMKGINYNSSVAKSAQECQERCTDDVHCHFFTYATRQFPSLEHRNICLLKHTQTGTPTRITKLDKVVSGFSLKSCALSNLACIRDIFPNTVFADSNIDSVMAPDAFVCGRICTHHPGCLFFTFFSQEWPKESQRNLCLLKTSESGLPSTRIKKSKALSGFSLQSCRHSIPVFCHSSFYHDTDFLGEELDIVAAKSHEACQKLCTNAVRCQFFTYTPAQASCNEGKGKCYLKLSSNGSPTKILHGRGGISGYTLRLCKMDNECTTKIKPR
# Method: as §2
# porcine trypsin = target: T7, porcine trypsin (Sus scrofa, UniProt P00761); test: Serine protease inhibition assay, fluorogenic substrate: trypsin; format: biochemical; settings: screened at 5 μM; [S]0 = 25 µM; read-out: Serine Protease IC50 ± SD, Trypsin
# T7 construct: porcine trypsin; Merck; purchased Merck
# T7 sequence (P00761 9-231): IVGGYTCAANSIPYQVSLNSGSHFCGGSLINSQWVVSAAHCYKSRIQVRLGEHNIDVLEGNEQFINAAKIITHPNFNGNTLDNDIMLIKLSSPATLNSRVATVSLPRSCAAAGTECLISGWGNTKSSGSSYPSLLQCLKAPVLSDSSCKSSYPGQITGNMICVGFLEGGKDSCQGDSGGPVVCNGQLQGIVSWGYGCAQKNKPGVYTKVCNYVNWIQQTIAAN
# Method: as §2
# human α-thrombin [4] = target: T5, human α-thrombin; test: Mass-shift assay of the covalent thrombin-inhibitor complex by LC/ESI-MS; settings: 79 μM inhibitor, preincubated 15 min, ESI(+); corresponds to pivaloyl moiety
# Method: Analysis of the covalent thrombin-inhibitor complex by LC/ESI-MS. The analysis of covalent thrombin-inhibitor complex was performed utilizing LC/ESI-MS as reported previously with variations. Briefly, 2 µL of the stock solution (128 µM) of human α-thrombin (active) protein (ABIN2127880, >95% purity; antibodies-online) were diluted with 68 µL of purified water. […] Reversed phase liquid chromatography was performed using a Discovery BIO Wide Pore C5 column (100 × 2.1 mm, 3 µm particle size, 300 Å pore size) from Supelco (Bellefonte, PA, USA). For chromatographic analysis of the sample solutions, 0.1% formic acid in purified water (A) and 0.1% formic acid in acetonitrile (B) were used as mobile phase. The following gradient of 15 min in total was applied: starting with 5% B, B is increased up to 40% within 3 min. After holding 40% B for 1.5 min, B is decreased to 5% within 0.5 min and kept at 5% for 1 min. B is then increased to 95% within 4 min and kept at this value for 1 min. After decreasing B to 5% within 1 min, this ratio is kept for 3 min. […] The enzyme-inhibitor complex was analyzed in the positive ion mode using the following ESI-MS parameters: The mass range was set to m/z 1000–4000, nebulizer gas (nitrogen) was 1.6 bar, dry gas (nitrogen) was 9.0 L/min, dry gas temperature was 200 °C, Funnel 1 RF was 450 V, pre pulse storage time was 30 µs and transfer time was 100 µs. […]
# [5] = screened at 5 μM, IC50 in triplicate for actives, [S]0 = 25 µM, read-out: Serine Protease IC50 ± SD, FXIa
# [6] = [S]0 = 25 µM Boc-Val-Pro-Arg-AMC, Km = 18 ± 1 µM, triplicate, 25 °C
SMILES,"aPTT, fold increase compared to DMSO (human pooled plasma [1]) [fold]",IC50 (human plasmin) [µM],IC50 (human chymotrypsin) [µM],IC50 (human plasma kallikrein) [µM],IC50 (human Factor Xa) [µM],IC50 (human β-FXIIa) [µM],IC50 (human α-thrombin [2]) [µM],"PT, fold increase compared to DMSO (human pooled plasma [3]) [fold]",IC50 (human Factor XIa; [5]) [µM],IC50 (porcine trypsin) [µM],IC50 (human α-thrombin [2]; [6]) [µM],inhibition at 5 µM (human Factor Xa; at 5 μM) [%],IC50 (human Factor XIa; read-out: FXIa IC50) [µM],melting point [°C],fold higher dose for 50% inhibition of chymotrypsin than for thrombin (human chymotrypsin; selectivity chymotrypsin vs thrombin) [fold],mass-shift of thrombin after incubation with inhibitor (Δm) (human α-thrombin [4]),fold more potent thrombin inhibitor than 3-phenyl-substituted analog 24g (human α-thrombin [2]; IC50 16 nM vs. 419) [fold]
"O=C(c1ccccc1)n1nc(-c2ccccc2)c(F)c1NCc1ccc(Cl)s1 [34b, (5-(((5-chlorothiophen-2-yl)methyl)amino)-4-fluoro-3-phenyl-1H-pyrazol-1-yl)(phenyl)methanone]",1.0,> 5,1.15 ± 0.11,> 5,> 5,> 5,0.071 ± 0.003,1.1,> 5,> 5,–,–,–,–,–,–,–
"CC(C)(C)C(=O)n1nc(-c2ccccc2)c(F)c1NCc1ccc(Cl)s1 [34a, 1-(5-(((5-chlorothiophen-2-yl)methyl)amino)-4-fluoro-3-phenyl-1H-pyrazol-1-yl)-2,2-dimethylpropan-1-one]",1.0,> 5,> 5,> 5,> 5,> 5,–,1.1,> 5,> 5,0.08 ± 0.002,–,–,–,–,–,–
"O=C(c1ccccc1)n1nc(-c2cccnc2)cc1NCc1ccc(Cl)s1 [compound 25, (5-{[(5-chlorothiophen-2-yl)methyl]amino}-3-(pyridin-3-yl)-1H-pyrazol-1-yl)(phenyl)methanone]",1.1,> 5,0.242 ± 0.013,0.639 ± 0.156,~5,> 5,–,1.2,1.02 ± 0.09,> 5,0.018 ± 0.001,54,1,–,–,–,–
"COc1ccc(Cn2c3ccccc3c(=O)n3nc(-c4cccnc4)cc23)cc1 [10b, 4-(4-methoxybenzyl)-2-(pyridin-3-yl)pyrazolo[5,1-b]quinazolin-9(4H)-one]",–,–,–,–,–,> 5,> 5,–,–,–,–,–,–,245,–,–,–
"O=c1c2ccccc2n(Cc2ccccc2)c2cc(C3CCCCC3)nn12 [10h, 4-benzyl-2-cyclohexylpyrazolo[5,1-b]quinazolin-9(4H)-one]",–,–,–,–,–,> 5,> 5,–,–,–,–,–,–,180 to 181,–,–,–
"CC(C)(C)C(=O)n1nc(-c2cccnc2)cc1NCc1ccc(Cl)s1 [24e, 1-(5-{[(5-chlorothiophen-2-yl)methyl]amino}-3-(pyridin-3-yl)-1H-pyrazol-1-yl)-2,2-dimethylpropan-1-one]",1.1,> 5,0.875 ± 0.059,> 5,> 5,> 5,–,1.1,> 5,> 5,0.016 ± 0.001,–,–,96 to 97,55,84.5 Da and 84.53 Da,26
"O=C(c1ccccc1I)n1nc(-c2cccnc2)cc1NCc1ccco1 [9d, {5-[(furan-2-ylmethyl)amino]-3-(pyridin-3-yl)-1H-pyrazol-1-yl}(2-iodophenyl)methanone]",–,–,–,–,–,> 5,> 5,–,–,–,–,–,–,103 to 104,–,–,–
"O=c1c2ccccc2n(Cc2ccc(Cl)s2)c2cc(C3CCCCC3)nn12 [10i, 4-[(5-chlorothiophen-2-yl)methyl]-2-cyclohexylpyrazolo[5,1-b]quinazolin-9(4H)-one]",–,–,–,–,–,> 5,> 5,–,–,–,–,–,–,210,–,–,–
"O=c1c2ccccc2n(Cc2ccc(Cl)s2)c2cc(-c3cccnc3)nn12 [10e, 4-[(5-chlorothiophen-2-yl)methyl]-2-(pyridin-3-yl)pyrazolo[5,1-b]quinazolin-9(4H)-one]",–,–,–,–,–,> 5,> 5,–,–,–,–,–,–,248 to 249,–,–,–
"O=C(c1ccccc1I)n1nc(-c2cccnc2)cc1NCc1cccc2ccccc12 [9c, (2-iodophenyl)(5-{[(naphthalen-1-yl)methyl]amino}-3-(pyridin-3-yl)-1H-pyrazol-1-yl)methanone]",–,–,–,–,–,> 5,> 5,–,–,–,–,–,–,137,–,–,–
